From US20250353891A1 (MEDIMMUNE LIMITED, priority 2022, published 2025) come the findings set out here.

For test [1], the target named is human GLP-1 receptor (hGLP-1R) (Homo sapiens, UniProt P43220). Description: cAMP production (HTRF) in CHO cells expressing hGLP-1R. Particulars: for EC50: Table 6, peptides modified at position 17, cAMP in CHO hGLP-1R cells, geometric mean, read-out: hGLP-1R EC50; for % Relative Potency Ratio: Table 6, % GLP-1R activity relative to GLP-1 / % GlucR activity relative to glucagon. Type of test: cell-based. The arrangement: expressed in transfected cells. In short, it runs like this: (§1)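 Cells were resuspended in assay buffer at batch-optimized density, typically 1×10^5 cells/mL for hGLP-1R and 2×10^5 cells/mL for hGCGR. After 30 min incubation at room temperature with compound, cAMP was measured by two-step HTRF. EC50 values came from 4-parameter logistic fits of % Delta F.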
(In general: Changes in cAMP serve as a functional read-out for many G protein-coupled receptors.)

Test [2] has as its target human glucagon receptor (hGCGR) (Homo sapiens, UniProt P47871). Put plainly: cAMP production (HTRF) in CHO cells expressing hGCGR. In kind it is cell-based. The arrangement: expressed in transfected cells. The following applies: Table 6, peptides modified at position 17; cAMP in CHO hGCGR cells; geometric mean; read-out: hGluc-R EC50. In short, it runs like this:
as §1

SMILES strings stand for the structures. Starred links: 1 amine or outer side, 2 acyl side, 3 side chain; linkers in the order of their positions; H or OH if unused. Non-standard residues stand in square brackets, D forms with d. Residues, ends and D or L forms follow the SMILES beside them. Groups on a side chain read outwards from the residue. *: point of attachment. C20 diacid = O=C(O)CCCCCCCCCCCCCCCCCCC(=O)*; C18 diacid = O=C(O)CCCCCCCCCCCCCCCCC(=O)*; γGlu = O=C(O)[C@H](CCC(=O)[*:2])N[*:1]; αMeF = C[C@](N)(Cc1ccccc1)C(=O)O; AEEA = NCCOCCOCC(=O)O; Aib = CC(C)(N)C(=O)O

human glucagon receptor (hGCGR), sequence (P47871 26-477): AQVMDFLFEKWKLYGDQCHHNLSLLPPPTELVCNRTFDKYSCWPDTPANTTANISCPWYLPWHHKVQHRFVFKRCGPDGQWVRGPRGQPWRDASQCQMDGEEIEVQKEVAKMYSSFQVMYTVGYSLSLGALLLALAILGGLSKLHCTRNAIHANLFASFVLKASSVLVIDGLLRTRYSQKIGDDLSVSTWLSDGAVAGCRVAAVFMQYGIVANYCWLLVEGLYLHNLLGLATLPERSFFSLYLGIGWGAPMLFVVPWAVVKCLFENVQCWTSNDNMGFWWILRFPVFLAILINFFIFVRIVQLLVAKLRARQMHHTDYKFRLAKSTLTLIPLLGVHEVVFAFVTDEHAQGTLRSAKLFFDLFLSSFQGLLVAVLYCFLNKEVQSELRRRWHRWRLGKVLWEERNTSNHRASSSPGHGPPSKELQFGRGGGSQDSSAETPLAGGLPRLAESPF
human GLP-1 receptor (hGLP-1R), sequence (P43220 24-463): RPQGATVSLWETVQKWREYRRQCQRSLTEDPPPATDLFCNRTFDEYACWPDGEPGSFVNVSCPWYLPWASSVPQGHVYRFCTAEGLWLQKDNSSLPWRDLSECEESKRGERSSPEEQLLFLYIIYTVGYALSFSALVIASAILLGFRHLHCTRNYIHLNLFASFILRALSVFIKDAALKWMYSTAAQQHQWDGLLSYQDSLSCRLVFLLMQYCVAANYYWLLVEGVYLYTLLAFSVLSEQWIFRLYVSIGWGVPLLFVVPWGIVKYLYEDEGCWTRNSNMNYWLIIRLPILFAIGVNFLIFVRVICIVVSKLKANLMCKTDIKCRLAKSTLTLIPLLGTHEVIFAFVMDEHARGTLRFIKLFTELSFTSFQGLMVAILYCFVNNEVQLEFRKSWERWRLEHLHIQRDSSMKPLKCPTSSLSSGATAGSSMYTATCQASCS

Usually EC50 stands for the concentration giving half of the maximal effect. In the case of `CC[C@H](C)[C@H](NC(=O)[C@H](CO)NC(=O)[C@H](CCC(=O)O)NC(=O)[C@@H](NC(=O)[C@](C)(Cc1ccccc1)NC(=O)[C@H](CC(=O)O)NC(=O)[C@H](CCC(N)=O)NC(=O)[C@H](C)NC(=O)[C@H](C)NC(=O)[C@H](CCCCNC(=O)COCCOCCNC(=O)COCCOCCNC(=O)CC[C@H](NC(=O)CCCCCCCCCCCCCCCCC(=O)O)C(=O)O)NC(=O)[C@H](CO)NC(=O)[C@H](CC(=O)O)NC(=O)[C@H](CC(C)C)NC(=O)[C@](C)(Cc1ccccc1)NC(=O)[C@H](CCCCN)NC(=O)[C@H](CO)NC(=O)[C@@H](NC(=O)[C@H](CC(=O)O)NC(=O)[C@H](CO)NC(=O)[C@@H](NC(=O)[C@](C)(Cc1ccccc1)NC(=O)[C@H](CO)NC(=O)CNC(=O)[C@H](Cc1c[nH]cn1)NC(=O)C(C)(C)NC(=O)[C@@H](N)Cc1c[nH]cn1)[C@@H](C)O)C(C)C)C(C)C)C(=O)N[C@@H](C)C(=O)N[C@@H](CC(N)=O)C(=O)N[C@H](C(N)=O)[C@@H](C)O` [Peptide 23] (H-H[Aib]HGS[αMeF]TSDVSK[αMeF]LDSK([AEEA-AEEA-γGlu-C18 diacid])AAQD[αMeF]VESIANT-NH2; N-terminus assumed), in test [1], the EC50 stood at 0.266 nM and the “% Relative Potency Ratio” value stood at 2.4. Also, in test [2], the EC50 was found to be 0.321 nM.

In the case of `CC[C@H](C)[C@H](NC(=O)C(C)(C)NC(=O)[C@H](CCC(N)=O)NC(=O)[C@@H](NC(=O)[C@](C)(Cc1ccccc1)NC(=O)[C@H](CC(=O)O)NC(=O)[C@H](CCC(N)=O)NC(=O)[C@H](C)NC(=O)[C@H](C)NC(=O)[C@H](CCCCNC(=O)COCCOCCNC(=O)COCCOCCNC(=O)CC[C@H](NC(=O)CCCCCCCCCCCCCCCCC(=O)O)C(=O)O)NC(=O)[C@H](CO)NC(=O)[C@H](CC(=O)O)NC(=O)[C@H](CC(C)C)NC(=O)[C@](C)(Cc1ccccc1)NC(=O)[C@H](CCCCN)NC(=O)[C@H](CO)NC(=O)[C@@H](NC(=O)[C@H](CC(=O)O)NC(=O)[C@H](CO)NC(=O)[C@@H](NC(=O)[C@](C)(Cc1ccccc1)NC(=O)[C@H](CO)NC(=O)CNC(=O)[C@H](Cc1c[nH]cn1)NC(=O)C(C)(C)NC(=O)[C@@H](N)Cc1c[nH]cn1)[C@@H](C)O)C(C)C)C(C)C)C(=O)N[C@@H](C)C(=O)N[C@@H](CC(N)=O)C(=O)N[C@H](C(N)=O)[C@@H](C)O` [Peptide 24] (H-H[Aib]HGS[αMeF]TSDVSK[αMeF]LDSK([AEEA-AEEA-γGlu-C18 diacid])AAQD[αMeF]VQ[Aib]IANT-NH2; N-terminus assumed), the EC50 turned out to be 0.0828 nM in test [1] and 0.101 nM in test [2]. Also, the “% Relative Potency Ratio” value in test [1] came out at 2.4.

As to `CC[C@H](C)[C@H](NC(=O)C(C)(C)NC(=O)[C@H](CCC(N)=O)NC(=O)[C@@H](NC(=O)[C@](C)(Cc1ccccc1)NC(=O)[C@H](CC(=O)O)NC(=O)[C@H](CCC(N)=O)NC(=O)[C@H](C)NC(=O)[C@H](C)NC(=O)[C@H](CCCCNC(=O)COCCOCCNC(=O)COCCOCCNC(=O)CC[C@H](NC(=O)CC[C@H](NC(=O)CCCCCCCCCCCCCCCCCCC(=O)O)C(=O)O)C(=O)O)NC(=O)[C@H](CO)NC(=O)[C@H](CC(=O)O)NC(=O)[C@H](CC(C)C)NC(=O)[C@](C)(Cc1ccccc1)NC(=O)[C@H](CCCCN)NC(=O)[C@H](CO)NC(=O)[C@@H](NC(=O)[C@H](CC(=O)O)NC(=O)[C@H](CO)NC(=O)[C@@H](NC(=O)[C@](C)(Cc1ccccc1)NC(=O)[C@H](CO)NC(=O)CNC(=O)[C@H](Cc1c[nH]cn1)NC(=O)C(C)(C)NC(=O)[C@@H](N)Cc1c[nH]cn1)[C@@H](C)O)C(C)C)C(C)C)C(=O)N[C@@H](C)C(=O)N[C@@H](CC(N)=O)C(=O)N[C@H](C(N)=O)[C@@H](C)O` [Peptide 25] (H-H[Aib]HGS[αMeF]TSDVSK[αMeF]LDSK([AEEA-AEEA-γGlu-γGlu-C20 diacid])AAQD[αMeF]VQ[Aib]IANT-NH2), in test [1], the EC50 worked out at 0.726 nM and the “% Relative Potency Ratio” value stood at 3.6. The EC50 in test [2] is 1.31 nM.

For `CC[C@H](C)[C@H](NC(=O)[C@H](Cc1c[nH]c2ccccc12)NC(=O)[C@H](CCC(N)=O)NC(=O)[C@@H](NC(=O)[C@](C)(Cc1ccccc1)NC(=O)[C@H](CC(=O)O)NC(=O)[C@H](CCC(N)=O)NC(=O)[C@H](C)NC(=O)[C@H](C)NC(=O)[C@H](CCCCNC(=O)COCCOCCNC(=O)COCCOCCNC(=O)CC[C@H](NC(=O)CCCCCCCCCCCCCCCCC(=O)O)C(=O)O)NC(=O)[C@H](CO)NC(=O)[C@H](CC(=O)O)NC(=O)[C@H](CC(C)C)NC(=O)[C@](C)(Cc1ccccc1)NC(=O)[C@H](CCCCN)NC(=O)[C@H](CO)NC(=O)[C@@H](NC(=O)[C@H](CC(=O)O)NC(=O)[C@H](CO)NC(=O)[C@@H](NC(=O)[C@](C)(Cc1ccccc1)NC(=O)[C@H](CO)NC(=O)CNC(=O)[C@H](CCC(N)=O)NC(=O)C(C)(C)NC(=O)[C@@H](N)Cc1c[nH]cn1)[C@@H](C)O)C(C)C)C(C)C)C(=O)N[C@@H](C)C(=O)N[C@@H](CC(N)=O)C(N)=O` [Peptide 26] (H-H[Aib]QGS[αMeF]TSDVSK[αMeF]LDSK([AEEA-AEEA-γGlu-C18 diacid])AAQD[αMeF]VQWIAN-NH2), in test [1], the EC50 stood at 0.0806 nM and the “% Relative Potency Ratio” value is given as 218.5. Moreover, the EC50 in test [2] worked out at 8.9 nM.

Turning to `CC[C@H](C)[C@H](NC(=O)[C@H](Cc1c[nH]c2ccccc12)NC(=O)[C@H](CCC(=O)O)NC(=O)[C@@H](NC(=O)[C@](C)(Cc1ccccc1)NC(=O)[C@H](CC(=O)O)NC(=O)[C@H](CCC(N)=O)NC(=O)[C@H](C)NC(=O)[C@H](C)NC(=O)[C@H](CCCCNC(=O)COCCOCCNC(=O)COCCOCCNC(=O)CC[C@H](NC(=O)CCCCCCCCCCCCCCCCC(=O)O)C(=O)O)NC(=O)[C@H](CO)NC(=O)[C@H](CC(=O)O)NC(=O)[C@H](CC(C)C)NC(=O)[C@](C)(Cc1ccccc1)NC(=O)[C@H](CCCCN)NC(=O)[C@H](CO)NC(=O)[C@@H](NC(=O)[C@H](CC(=O)O)NC(=O)[C@H](CO)NC(=O)[C@@H](NC(=O)[C@](C)(Cc1ccccc1)NC(=O)[C@H](CO)NC(=O)CNC(=O)[C@H](CCC(N)=O)NC(=O)C(C)(C)NC(=O)[C@@H](N)Cc1c[nH]cn1)[C@@H](C)O)C(C)C)C(C)C)C(=O)N[C@@H](C)C(=O)N[C@@H](CC(N)=O)C(N)=O` [Peptide 27] (H-H[Aib]QGS[αMeF]TSDVSK[αMeF]LDSK([AEEA-AEEA-γGlu-C18 diacid])AAQD[αMeF]VEWIAN-NH2; N-terminus assumed), in test [1], the EC50 amounted to 0.0182 nM and the “% Relative Potency Ratio” value stood at 156.4. Besides, in test [2], the EC50 was found to be 1.44 nM.

For `CC(C)C[C@H](NC(=O)[C@H](Cc1c[nH]c2ccccc12)NC(=O)[C@H](CCCNC(=N)N)NC(=O)[C@@H](NC(=O)[C@H](Cc1ccccc1)NC(=O)[C@H](CC(=O)O)NC(=O)[C@H](CCC(N)=O)NC(=O)[C@H](C)NC(=O)[C@H](CCCNC(=N)N)NC(=O)[C@H](CCCCNC(=O)COCCOCCNC(=O)COCCOCCNC(=O)CC[C@H](NC(=O)CCCCCCCCCCCCCCCCC(=O)O)C(=O)O)NC(=O)[C@H](CO)NC(=O)[C@H](CC(=O)O)NC(=O)[C@H](CC(C)C)NC(=O)[C@](C)(Cc1ccccc1)NC(=O)[C@H](CCCCN)NC(=O)[C@H](CO)NC(=O)[C@@H](NC(=O)[C@H](CC(=O)O)NC(=O)[C@H](CO)NC(=O)[C@@H](NC(=O)[C@H](Cc1ccccc1)NC(=O)[C@@H](NC(=O)CNC(=O)[C@H](CCC(N)=O)NC(=O)C(C)(C)NC(=O)[C@@H](N)Cc1c[nH]cn1)[C@@H](C)O)[C@@H](C)O)C(C)C)C(C)C)C(=O)N[C@@H](CC(C)C)C(=O)NC(C)(C)C(=O)N[C@H](C(=O)O)[C@@H](C)O` [Peptide 28] (H-H[Aib]QGTFTSDVSK[αMeF]LDSK([AEEA-AEEA-γGlu-C18 diacid])RAQDFVRWLL[Aib]T-OH), the EC50 in test [1] was found to be 0.129 nM; in test [2], 0.26 nM. For the same molecule, the “% Relative Potency Ratio” value in test [1] worked out at 4.0.

Turning to `CC(C)C[C@H](NC(=O)[C@H](Cc1c[nH]c2ccccc12)NC(=O)[C@H](CCC(N)=O)NC(=O)[C@@H](NC(=O)[C@H](Cc1ccccc1)NC(=O)[C@H](CC(=O)O)NC(=O)C(C)(C)NC(=O)[C@H](C)NC(=O)[C@H](CCCNC(=N)N)NC(=O)[C@H](CCCCNC(=O)COCCOCCNC(=O)COCCOCCNC(=O)CC[C@H](NC(=O)CCCCCCCCCCCCCCCCC(=O)O)C(=O)O)NC(=O)[C@H](CO)NC(=O)[C@H](CC(=O)O)NC(=O)[C@H](CC(C)C)NC(=O)[C@](C)(Cc1ccccc1)NC(=O)[C@H](CCCCN)NC(=O)[C@H](CO)NC(=O)[C@@H](NC(=O)[C@H](CC(=O)O)NC(=O)[C@H](CO)NC(=O)[C@@H](NC(=O)[C@H](Cc1ccccc1)NC(=O)[C@@H](NC(=O)CNC(=O)[C@H](CCC(N)=O)NC(=O)C(C)(C)NC(=O)[C@@H](N)Cc1c[nH]cn1)[C@@H](C)O)[C@@H](C)O)C(C)C)C(C)C)C(=O)N[C@@H](CC(C)C)C(=O)NC(C)(C)C(=O)N[C@H](C(=O)O)[C@@H](C)O` [Peptide 29] (H-H[Aib]QGTFTSDVSK[αMeF]LDSK([AEEA-AEEA-γGlu-C18 diacid])RA[Aib]DFVQWLL[Aib]T-OH; N-terminus assumed), in test [1], the EC50 amounted to 0.107 nM and the “% Relative Potency Ratio” value is reported as 11.7. Further, the EC50 in test [2] is 0.629 nM.
